# Assay results published in patent US10744114B2, “Use of eupatilin as pharmaceutical composition for prevention and treatment of fibrosis using EMT inhibitory activity” (OSTEONEUROGEN INC., priority 2016, dated 2020).
# Test system: ONGHEPA1 cells
# Assay: Global gene expression analysis (RNA-Seq) and target gene analysis
# Assay type: cell-based, mouse
# Conditions: 24 hr
# Method: For a mechanism for the therapeutic effect on fibrosis, the global gene expression of DMSO-treated ONGHEPA1 cells (a control group), ONGHEPA1 cells in which fibrosis was induced by TGF-β, and ONGHEPA1 cells treated with TGF-β and eupatilin was measured.
# The cells were treated with DMSO, TGF-β or eupatilin for 24 hr, and total RNA was isolated to manufacture a library, after which about 10,000 expressed mRNA species in a total transcriptome of 30 Gb were analyzed using an Illumina High-seq sequencer.
smiles,measurement,setting,value
"COc1ccc(-c2cc(=O)c3c(O)c(OC)c(O)cc3o2)cc1OC [eupatilin, 2-(3,4-dimethoxyphenyl)-5,7-dihydroxy-6-methoxy-chromone]",expression of Fstl1,TGF-β + eupatilin,inhibited to a level of almost zero
same,Log2fc A disintegrin-like and metallopeptidase (reprolysin type) with thrombospondin type 1 motif 2 (Adamts2),TGF-β vs TGF-β+eupatilin,2.08
same,Log2fc A disintegrin-like and metallopeptidase with thrombospondin type 1 motif 12 (Adamts12),TGF-β vs TGF-β+eupatilin,2.09
same,Log2fc AXL receptor tyrosine kinase (Axl),TGF-β vs TGF-β+eupatilin,−infinite
same,Log2fc Actin alpha 4 (Actn4),TGF-β vs TGF-β+eupatilin,infinite
same,"Log2fc Actin, gamma2 (Actg2)",TGF-β vs TGF-β+eupatilin,−5.83
same,"Log2fc ArfGAP with SH3 domain, ankyrin repeat and PH domain 1 (Asap1)",TGF-β vs TGF-β+eupatilin,−infinite
same,Log2fc Aurora kinase A (Aurka),TGF-β vs TGF-β+eupatilin,−15.3
same,"Log2fc BTAF1 RNA polymerase II, B-TFIID transcription factor-associated (Btaf1)",TGF-β vs TGF-β+eupatilin,−infinite
same,Log2fc C-terminal-binding protein 2 (Ctbp2),TGF-β vs TGF-β+eupatilin,infinite
same,Log2fc Caldesmon 1 (Cald1),TGF-β vs TGF-β+eupatilin,infinite
same,Log2fc Calreticulin (Calr),TGF-β vs TGF-β+eupatilin,−1.74
same,Log2fc Calumenin (Calu),TGF-β vs TGF-β+eupatilin,infinite
same,"Log2fc Caveolin 1, Caveolae protein (Cav1)",TGF-β vs TGF-β+eupatilin,1.76
same,Log2fc Cell cycle associated protein 1 (Caprin1),TGF-β vs TGF-β+eupatilin,−infinite
same,"Log2fc Cell migration inducing protein, hyaluronan binding (Cemip)",TGF-β vs TGF-β+eupatilin,−2.75
same,"Log2fc Coatomer protein complex, subunit gamma 1 (Copg1)",TGF-β vs TGF-β+eupatilin,infinite
same,Log2fc Collagen type 1 alpha 1 (Col1a1),TGF-β vs TGF-β+eupatilin,−1.64
same,Log2fc Collagen type VII alpha1 (Col7a1),TGF-β vs TGF-β+eupatilin,−15.2
same,"Log2fc Collagen type XV, alpha 1 (Col5a1)",TGF-β vs TGF-β+eupatilin,2.26
same,"Log2fc Collagen, type III, alpha 1 (Col3a1)",TGF-β vs TGF-β+eupatilin,infinite
same,"Log2fc Collagen, type XI, alpha 1 (Col11a1)",TGF-β vs TGF-β+eupatilin,−3.11
same,"Log2fc Collagen, type XII, alpha 1 (Col12a1)",TGF-β vs TGF-β+eupatilin,2.02
same,Log2fc Colony stimulating factor 1 (macrophage) (Csf1),TGF-β vs TGF-β+eupatilin,2.15
same,"Log2fc Crystallin, zeta (quinone reductase)-like 1 (Cryzl1)",TGF-β vs TGF-β+eupatilin,infinite
same,Log2fc Cyclin D2 (Ccnd2),TGF-β vs TGF-β+eupatilin,2.29
same,Log2fc Dihydropyrimidinase-like 3 (Dpysl3),TGF-β vs TGF-β+eupatilin,infinite
same,Log2fc Doublecortin-like kinase 1 (Dclk1),TGF-β vs TGF-β+eupatilin,1.54
same,Log2fc Dynein cytoplasmic 1 heavy chain 1 (Dync1h1),TGF-β vs TGF-β+eupatilin,−infinite
same,Log2fc Dysferlin (Dysf),TGF-β vs TGF-β+eupatilin,2.06
same,Log2fc EH-domain containing 2 (Ehd2),TGF-β vs TGF-β+eupatilin,infinite
same,Log2fc Elastin (Eln),TGF-β vs TGF-β+eupatilin,3.28
same,Log2fc Endoglin (Eng),TGF-β vs TGF-β+eupatilin,−infinite
same,Log2fc Endoplasmic reticulum-golgi intermediate compartment 1 (ERGIC1),TGF-β vs TGF-β+eupatilin,−1.26
same,Log2fc Ephrin B2 (Efnb2),TGF-β vs TGF-β+eupatilin,1.92
same,Log2fc Epidermal growth factor-containing fibulin-like extracellular matrix protein 2 (Efemp2),TGF-β vs TGF-β+eupatilin,1.66
same,Log2fc Exocyst complex component 4 (Exoc4),TGF-β vs TGF-β+eupatilin,2.9
same,"Log2fc Family with sequence similarity 175, member B (Fam175b)",TGF-β vs TGF-β+eupatilin,−infinite
same,Log2fc Fibronectin 1 (Fn1),TGF-β vs TGF-β+eupatilin,infinite
same,Log2fc Fibronectin type III domain containing 1 (Fndc1),TGF-β vs TGF-β+eupatilin,1.75
same,Log2fc Follistatin-like 1 (Fstl1),TGF-β vs TGF-β+eupatilin,infinite
same,Log2fc Fras 1 related extracellular matrix protein 1 (Frem1),TGF-β vs TGF-β+eupatilin,2.36
same,"Log2fc Heat shock protein 90, alpha (cytosolic), class A member 1(Hsp90aa1)",TGF-β vs TGF-β+eupatilin,infinite
same,Log2fc Heparan sulfate 6-O-sulfotransferase 2 (Hs6st2),TGF-β vs TGF-β+eupatilin,3.26
same,Log2fc Importin-4 (Ipo4),TGF-β vs TGF-β+eupatilin,−infinite
same,Log2fc Inhibition beta-A (Inhba),TGF-β vs TGF-β+eupatilin,2.19
same,Log2fc Inositol hexakisphosphate kinase 1 (Ip6k1),TGF-β vs TGF-β+eupatilin,−infinite
same,Log2fc Integral beta 5 (Itgb5),TGF-β vs TGF-β+eupatilin,−infinite
same,Log2fc Interleukin 18 receptor accessory protein (Il18rap),TGF-β vs TGF-β+eupatilin,1.69
same,Log2fc Intersectin 1 (SH3 domain protein 1A) (Itsn1),TGF-β vs TGF-β+eupatilin,infinite
same,"Log2fc Laminin, alpha 4 (Lama4)",TGF-β vs TGF-β+eupatilin,−1.29
same,Log2fc Latent transforming growth factor beta binding protein 1 (Ltbp1),TGF-β vs TGF-β+eupatilin,3.32
same,Log2fc Latent transforming growth factor beta binding protein 2 (Ltbp2),TGF-β vs TGF-β+eupatilin,−infinite
same,Log2fc Latent transforming growth factor beta binding protein 4 (Ltbp4),TGF-β vs TGF-β+eupatilin,−infinite
same,Log2fc Leprecan 1 (Lepre1),TGF-β vs TGF-β+eupatilin,1.75
